The values that follow come from patent US20110319360A1, “Method of including apoptosis/Cell death in leukemia cell using a purine nucleoside analogue” (U.S. Department of Veterans Affairs, priority 2010, published 2011).

Like-named read-outs stand apart in the source and are kept apart here.

The IC50 is the concentration that gives 50% inhibition.

In one data set the test system is CLL cells. Nature of the data set: MTS cytotoxicity assay on primary CLL cells. The class given is cell-based. As to conditions: Homo sapiens, CLL cell. As to the method: On the same day that heparin-anticoagulated venous blood was collected from participants, CLL cells were purified by methods described previously (Reference 11). Briefly, CLL cells were isolated from whole blood using the RosetteSep® B-cell enrichment cocktail (Stem Cell Technologies, Vancouver, BC, Canada) together with ficoll-Hypaque density gradient centrifugation. This method yielded CLL cell purity of greater than 95% CD5^+CD19^+ B-cells.
2.5×10^5 CLL cells were incubated in triplicate or quadruplicate in a 96-well tissue culture plate (Costar, Corning, N.Y.) with serial dilutions of LMP-420, fludarabine, and/or recombinant TNF-alpha (R&D Systems, Minneapolis, Minn.) in Hybridoma serum free media (SFM) (GIBCO/Invitrogen, Carlsbad, Calif.) containing 10% heat-inactivated fetal bovine serum (FBS) (Sigma) at 37° C. with 5% CO2. After 72 hours, 20 μl CellTiter 96® AQueous One Solution Cell Proliferation Assay (Promega, Madison, Wis.) MTS (3-(4,5 dimethylthiazol-2-yl)-5-(3-carboxymethoxyphenyl-2-(4-sulfophenyl)-2H-tetrazolium) reagent was added to each well and the absorbance was read at 490 nm on a Thermomax microplate reader (Molecular Devices, Sunnyvale, Calif.). We calculated fractional cytotoxicity as performed previously (Reference 12), comparing absorbance at 490 nm from treated cells to control cells incubated with media alone.
The concentration effective at killing 50% of CLL cells compared to media alone (ED50) was calculated when 50% fractional cytotoxicity occurred within the range of serial dilutions tested (Reference 12). If the ED50 fell below or above this range, it was set to either the lowest or the highest concentration tested, respectively, for the purposes of statistical analyses and graphical representation.

A further data set concerns CD3-positive T-cell. The experiment in a line: Annexin V apoptosis of normal T-lymphocytes in PBMCs. It counts as cell-based, human. As to conditions: 72 hours. As for the experimental part:
(§1) PBMCs were cultured at 10^6 cells/ml in a 12-well tissue culture plate. Cells were treated for 72 hours with vehicle control or drug for 72 hours, then harvested as above for staining. PBMCs were resuspended at 2×10^5 cells/tube in 100 μl buffer (HBSS, 0.5% bovine serum albumin, 0.1% sodium azide) and incubated for 30 min with CD3-FITC or CD19-FITC antibodies according to the manufacturer's protocol (BD Biosciences). Cells were then incubated with PE-annexin V and 7-AAD (BD Biosciences) in annexin V binding buffer (BD Biosciences) for 15 minutes prior to analysis of apoptosis on the Guava EasyCyte™ Plus system.

Data set [1] has as its system CD34+ hematopoietic progenitor cells (erythroid colonies). Nature of the data set: Colony formation assay, erythroid colonies. It counts as cell-based, human. As for the experimental part:
CD34^+ hematopoietic progenitor cells were isolated from PBMCs from two healthy donors using the CD34 Microbead Kit (Miltenyi Biotec, Auburn, Calif.). 10^3 CD34^+-enriched cells were cultured in a 35 mm culture plate (1000 cells/plate) with or without LMP-420 or fludarabine in 1.1 ml Human Methylcellulose Complete Media (R&D Systems) according to the manufacturer's protocol. Plates were incubated for 14 days at 37° C. in humidified 5% CO2. Each treatment group was tested in triplicate. Colonies on plates were scored by two independent observers, blinded to the treatment groups, by microscopic evaluation under 10× and 20× power. Colonies were categorized as being of either erythroid or myeloid lineage.

The next data set deals with CD19-positive B-cell. Nature of the data set: Annexin V apoptosis of normal B-lymphocytes in PBMCs. As to conditions: 72 hours. The class given is cell-based, human. As for the experimental part: as §1

On to `Nc1nc(Cl)c2ncn(CCCCCB(O)O)c2n1` [LMP-420, 2-amino-6-chloro-9-[5(dihydroxyboryl)-pentyl] purine], for which the EC50 in the data set on CLL cells (72 h, five patients of the nucleosome ELISA set, 72 hours, read-out: mean ED50, fractional cytotoxicity by MTS) is about 0.85 µM; in the data set with CLL cells (72 h, primary CLL cells, 72 hours, MTS, mean of 35 samples, read-out: mean concentration required to induce 50% cytotoxicity (ED50)), 0.245 µM; in the data set on CLL cells (CLL samples with favorable risk cytogenetic aberrations, n=27, read-out: median MTS ED50), 0.162 µM; in the data set on CLL cells (CLL samples with favorable risk cytogenetic aberrations, n=27, read-out: range of MTS ED50), 0.027 to 2.52 µM; with CLL cells (CLL samples with poor risk cytogenetic aberrations, n=5, read-out: median MTS ED50), 0.332 µM; in the data set with CLL cells (mean value from the MTS experiments, read-out: ED50 (μM), CLL), 0.25 µM. Also, the “average percent drug-specific apoptosis, T-cells” value in the data set with CD3-positive T-cell (1 μM, n=3) was −1%. Also, in the data set with CD3-positive T-cell (concentrations up to 90 μM), the “apoptosis in normal T-lymphocytes” value is given as “did not induce significant apoptosis”. In data set [1], the “erythroid colony IC50 relative to CLL ED50” value is “greater than 40 fold”. Further, the half-maximal inhibitory concentration (IC50) in data set [1] (Homo sapiens, 336 h, 14 days, healthy donors (n=2), read-out: mean IC50 for normal erythroid colony formation) was determined as 10000 nM. Besides, in the data set with CD19-positive B-cell (1 μM, n=3), the “average percent drug-specific apoptosis, B-cells” value came out at 11%. Also, in the data set with CD19-positive B-cell (concentrations up to 90 μM), the “apoptosis in normal B-lymphocytes” value is “did not induce significant apoptosis”.
